How the values were obtained:
CIML NK cells = test: CIML NK cell fratricide assay; format: cell-based
Description: (§1) PBMC isolation: Leukopheresis product from a donor with body mass index (BMI) between 19-25, under 50 years old, not on immuno-suppressive drugs for at least 2 weeks with an estimated PBMC cell count of >10^10 was obtained from Key Biologics (subject ID 20982200) and transported at ambient temperature. Leukopheresis bag was wiped down with 70% EtOH, a small slit was made and contents were pipetted off into tubes. Leukopak contents were diluted 1:1 with PBS without Ca++/Mg++ and 20 ml of this mixture was layered on top of 25 mL of Ficoll. Tubes were then centrifuged at 400 g for 30 minutes without brakes. PBMCs were harvested from the interface into separate tubes, and tubes were filled to 50 mL with PBS. Cells were centrifuged for 10 min at 120 g to get rid of platelets. Supernatant was poured off and cells were re-suspended in RPMI 10% FBS at a concentration of 7-10×10^6 cells/ml. Cells were cultured overnight at 37C in a 5% CO2 atmosphere until NK cell isolation.
(§2) NK cell isolation: PBMC were centrifuged at 400 g for 10 min and re-suspended in EasySep buffer. NK cells were isolated using NK cell isolation kits from STEMCELL Technologies according to kit's manufacturers' instructions. NK cell purity and phenotype was assessed by trypan Blue and flow cytometry using the following antibody cocktail: anti-CD56PE, CD3 APC, and viability was determined using staining with Trypan Blue exclusion dye, and by flow cytometry using Near Infra-Red Fixable viability dye (Thermo Fisher).
CIML NK cell generation: Isolated NK cells were re-suspended at 2×10^6 cells/ml in XVIVO 10% Human Serum and the following concentrations IL-15 (50 ng/ml), IL-12 (10 ng/ml), IL-18(50 ng/ml) for 12 to 18 hrs. […]
(§3) NK cell fratricide (death directed at NK cells in the same culture) was assessed by flow cytometry following a 2 hr incubation with the CD38 ARM at indicated concentrations in the presence or absence of 500 μg/ml intravenous immune globulin (IVIG). […]

[1] = tested on: CD56+CD138− CIML NK cells; test: NK cell fratricide in patient bone marrow co-incubation; format: cell-based, human; settings: co-incubated with patients bone marrow for 4 hrs; FIG. 4
Description: Patient bone marrow (3 ml) and blood (20 ml) were shipped at ambient temperature from Discovery Biosciences. Bone marrow was diluted 1:1 with PBS, and 50 μl of bone marrow-PBS mixture was aliquoted into 96 deep well plates. Bone marrow cells were incubated overnight until CIML cells were added next day.
PBMC were isolated from blood by Ficoll density gradient centrifugation. PBMC were centrifuged at 400 g for 10 min and re-suspended in EasySep buffer. NK cells were isolated using NK cell isolation kits from STEMCELL Technologies according to kit's manufacturers' instructions.
NK cells were re-suspended at 1×10^6 cells/ml in XVIVO15, 10% Human Serum, IL-15 (50 ng/ml), IL-12 (10 ng/ml), IL-18(50 ng/ml), and incubated for 18 hrs. Following overnight incubation with cytokines, NK cells were washed twice with PBS 5% Human Serum Albumin, counted and re-suspended at a cell density of 2×10^5 cells/ml of XVIVO15 media. Twenty microliters (4000 cells) were added per each well containing 50 μl of bone marrow: PBS mixture. […]
The assay was then incubated for 4 hrs. at 37° C. […] Finally, cells were re-suspended in 200 μl of FACS Buffer and analyzed using Attune Flow Cytometer. Data were analyzed using FlowJo software and graphed using GraphPad Prism. […]

non-CIML NK cells = test: NK cell fratricide assay, non-CIML control NK cells; format: cell-based; settings: 2 hr
Description: as §1
as §2, with “Fisher). […]” for “Fisher).”
Purity and viability of NK cells and CIML NK cells: Among other things, the present disclosure provides highly pure and viable NK cell populations following isolation from PBMC. […] After an overnight incubation, purity and viability were assessed in the cultured cell populations. […]
as §3

CCCCC[C@@H]1NC(=O)[C@H](CCCNC(=N)N)NC(=O)[C@H](C)NC(=O)CSC[C@@H](C(=O)NCCOCCOCCOCCOCCOCCOCCn2nnc3c2CCC2C(CC3)C2COC(=O)N2CCC(C(=O)NCC(=O)N[C@H](CCC(=O)N[C@H](CCC(=O)N[C@H](CCC(=O)O)C(=O)N[C@H](CCC(=O)N[C@H](CCC(=O)NCC(=O)NCC(=O)N[C@@H](CC(=O)O)C(=O)N[C@H]3CSSC[C@@H](C(=O)N[C@H](C(=O)O)[C@@H](C)O)NC(=O)[C@H](Cc4c[nH]c5ccccc45)NC(=O)[C@H](C(C)C)NC(=O)[C@H](CC(C)C)NC(=O)[C@H](CCC(=O)O)NC(=O)CNC(=O)[C@H](CC(C)C)NC(=O)[C@H](Cc4c[nH]cn4)NC(=O)[C@H](Cc4c[nH]c5ccccc45)NC(=O)[C@H](C)NC3=O)C(=O)O)C(=O)O)C(=O)O)C(=O)O)CC2)NC(=O)[C@H](CC(=O)O)NC(=O)[C@H](CCCCC)NC(=O)[C@H](Cc2ccc(-c3ccccc3)cc2)NC(=O)[C@H](CC(C)C)NC(=O)[C@H](C(C)C)NC(=O)CNC(=O)[C@H](CC(=O)O)NC(=O)[C@H](Cc2c[nH]cn2)NC(=O)[C@H](Cc2ccc(O)cc2)NC1=O (some centres unmarked) [CD38 ARM]
increase in the percentage of dead NK cells (CIML NK cells; CIML NK cells, +/−IVIG, 2 hours post-incubation): no increase
NK cell fratricide (data normalized to DMSO treated control) (CIML NK cells; even the highest doses, FIG. 1 (B)): no apparent NK cell fratricide was detected
frequencies of CD56+CD138− CIML NK cells (NK cell fratricide) [1]: did not change
increase in dead NK cells (non-CIML NK cells; 25 uM vs DMSO control): 1.7%
increase in dead NK cells (non-CIML NK cells; highest concentration with IVIG vs DMSO IVIG control): 0.93%
